Measured values published in patent US10118943B2, “Compounds and methods for inhibiting cell death” (Ramot at Tel-Aviv University Ltd., priority 2012, dated 2018).
“Also recorded” adds a separate entry of the source.

How the values were obtained:
PC12 cells [1] = assay: PC12 cell survival assay, zinc toxicity, MTS (Example 1); conditions: 400 μM zinc, 4 hrs, peptide 10^−9M
Protocol: PC12 cells (Pheochromocytoma cells) (ATCC, Bethesda, Md., USA) were seeded at 3×10^4 cells/cm^2 on poly-L-Lysine coated plastic tissue culture dishes (Corning, Lowell, Mass., USA) to form an adherent monolayer. Cells were maintained in Dulbecco's modified Eagle's medium (DMEM) supplemented with 10% horse serum (HS), 5% fetal calf serum (FCS), 2 mM glutamine, 100 U/ml penicillin and […] streptomycin (Biological Industries, Beit Haemek, Israel). PC12 differentiation was induced by nerve growth factor (NGF, Sigma) at concentrations of 50 ng/ml by replacing half of the medium every other day until the cells acquired a differentiated morphology. Differentiated cells were defined as bearing two or more neurites with lengths equal to or more than twice the diameter of the cell body (P. Lamoureux et al., The Journal of cell biology 110, 71 (January, 1990)). The cells were incubated in 5% CO2 in a humidified incubator at 37° C. The cells were sub-cultured every 5 days at a 4:1 split ratio by pipetting. The medium was changed every 2 or 3 days after adhesion.
Transfections were performed using Lipofectamine RNAiMAX (Invitrogen). Transfection was carried out according to manufacturer's protocol. For rat MAPRE3 knockdown, PC12 cells or neurons were plated in growth medium without antibiotics at concentration of 10^4 cells/0.32 cm^2 such that they will be 30-50% confluent at the time of transfection. To obtain the highest transfection efficiency and low non-specific effects, siRNA transfection was performed in the following optimized conditions: 50 nM for neurons and 25 nM PC12 of each siRNA construct with 0.2 μl Lipofectamine RNAiMAX (Invitrogen) was added per well of the 96-well plate and scaled up for different 24 or 6-well plates, according to the manufacturer's instructions. The medium was changed one day after transfection. 48 and 72 hours later, cells were harvested to assay for gene knockdown at the RNA and protein levels.
The cells were incubated for 4 hrs at 37° C. 5% CO2. Survival was measured using the MTS assay.
Metabolic activity of cells was measured by the CellTiter 96® Aqueous Non-Radioactive Cell Proliferation kit in accordance with the manufacturer's instructions (Promega). The assay uses a colorimetric method for determining the number of viable cells employing a tetrazolium compound [3-(4,5-dimethylthiazol-2-yl)-5-(3-carboxymethoxyphenyl)-2-(4-sulfophenyl)-2H-tetrazolium, MTS] and an electron-coupling reagent, phenazine methosulfate (PMS). MTS is bio-reduced by cells into a formazan product that is detected at 490 nm. The conversion of MTS into the formazan form is accomplished by dehydrogenase enzymes found in metabolically active cells. Thus, the quantity of formazan product as measured by the amount of 490 nm absorbance is directly proportional to the number of living cells in culture (A. H. Cory, T. C. Owen, J. A. Barltrop, J. G. Cory, Cancer Commun 3, 207 (July, 1991)).

[2] = molecular target: T1, full-length human EB3 recombinant protein (Homo sapiens, UniProt Q9UPY8); assay: Sulfolink coupling gel-NAP affinity chromatography with recombinant EB3, western analysis; assay type: binding; conditions: 2 mg soluble peptide incubated with recombinant EB3 and column beads
T1 construct: Full-length human EB3 was subcloned into pEX-N-His vector; 6xHis (N, cleaved yes); made in house; host or cells: E. coli BL21(DE3)
Protocol: (§1) Column load, flow through, wash and elution fractions were further analyzed by polyacrylamide gel electrophoresis, followed by western analysis with EB3 antibodies. […] Column chromatography, elution and western blots were performed as above. The extract fractions (flow, wash and elution) were separated by electrophoresis followed by protein detection (FIG. 6).

primary cortical neurons = assay: PSD-95 density in primary cortical neuron culture; assay type: cell-based, rat; conditions: neurons treated for 2 hrs
Protocol: Methods: 1. Primary cultures of neurons were prepared as follows. Newborn rats were sacrificed on postnatal day 1. Cerebral cortex tissue was then dissected and dissociated individually from each pup with the Papain Dissociation System (PDS; Worthington Biochemical Corporation) according to the manufacturer's instructions. 2. Cells were fixed with ice cold methanol, blocked with 2% bovine serum albumin (BSA) and 5% normal goat serum in Tris buffered saline containing tween 20 (TBS-T; 20 mM Tris pH 7.5, 136.8 mM NaCl, and 0.05% v/v Tween 20), and incubated with primary antibody followed by the appropriate secondary antibody. 3. Primary antibodies that were used include: monoclonal anti PSD-95 (ab-2723, Abcam), monoclonal anti Tyr-α-tubulin antibody (YL1/2) (VMA1864, Abcys, Paris, France), polyclonal anti Glu-α-tubulin antibody (L4) (AbC0101, Abcys, Paris, France), DyLight 488-labeled secondary goat anti-mouse IgG, DyLight 633-labeled secondary goat anti-rabbit IgG (KPL, Gaithersburg, Md., USA), Cy3-conjugated secondary goat anti-Rat IgG, (Jackson ImmunoResearch). 4. Images were collected with a Leica SP5 confocal laser scanning microscope (Mannheim, Germany) with 63× oil immersion optics, laser lines at 488, 561, 633 nm. Identical confocal laser scanning microscopy (CLSM) parameters (e.g., scanning line, laser light, gain, and offset etc.) were used for control and NAP treated cells.
For instance, a PSD-95 expression assay using primary cortical neuron cultures established from suitable animals may be performed to confirm a compound's activity in promoting cell plasticity. More specifically, primary cultures of neurons are prepared by first taking cerebral cortex tissue from newborn rats on postnatal day 1. The cerebral cortex tissue is then dissected and dissociated individually from each animal. Cells are fixed with ice cold methanol, blocked (e.g., with bovine serum albumin (BSA) and normal goat serum), and incubated with primary antibody (e.g., monoclonal antibody against PSD-95), optionally followed by the appropriate secondary antibody for imaging purposes. Images of primary neuronal cultures are taken and compared between cultures with or without being exposed to a test compound. An increased PSD-95 expression is indicative of the test compound being capable of promoting or protecting cell plasticity, especially neuronal plasticity.
Cerebral cortex tissue from newborn rats was dissected and dissociated individually from each pup with the Papain Dissociation System (PDS), (Worthington Biochemical Corporation) according to the manufacturer's instructions. Cortical neurons were maintained in Neurobasal medium (NB), (Gibco) supplemented with NeuroCult B27-SM1 ([…]), 1% Glutamax (Gibco), and grown on poly-D-lysine-coated cell culture glass cover slips.
Images were collected with a Leica SP5 confocal laser scanning microscope (Mannheim, Germany) with 63× oil immersion optics, laser lines at 488, 561, 633 nm or with LSM 510 META (Zeiss, Jena, Germany) confocal laser scanning microscope with 63× oil immersion optics, laser lines at 488, 568, 633 nm. When comparing fluorescence intensities, identical CLSM parameters (e.g., scanning line, laser light, gain, and offset etc.) were used. All of the fluorescent signals acquired were above the autofluorescent background as measured from a control slide stained with secondary antibody without a primary antibody. To compare the relative levels of protein expression, the average integrated density (AID) image analysis procedure was used for cell immunostains. In brief, integrated density is defined by the sum of the values of the pixels in the selected region of interest (ROI). This is equivalent to the product of Area and Mean Gray Value. AID for the positive stained area was determined by measuring the fluorescent intensity of the ROI, which is above the positive cut-off intensity. […]

astrocytes = assay: MT organization in astrocytes (FIG. 14); assay type: cell-based, rat
Protocol: Newborn rats (Harlan, Jerusalem, Israel) were sacrificed by decapitation, and the brain was removed (D. E. Brenneman et al., J Pharmacol Exp Ther 309, 1190 (June, 2004)). The tissue was minced with scissors and placed in Hank's balanced salts solution 1 (S1), containing HBSS (Biological Industries, Beit Haemek, Israel), 15 mM HEPES buffer, pH 7.3 (Biological Industries, Beit Haemek, Israel), and 0.25% trypsin (Biological Industries) in an incubator at 37° C. 5% CO2 for 20 min. The cells were then placed in 5 mL of solution 2 (S2) containing 10% heat inactivated fetal serum (Biological Industries), 0.1% gentamycin sulphate solution (Biological Industries), and 0.1% penicillin-streptomycin-nystatin solution (Biological Industries) in Dulbecco's modified Eagle's medium (DMEM, Sigma, Rehovot, Israel). The cells were allowed to settle and are then transferred to a new tube containing 2.5 mL of S2 and triturated using a Pasteur pipette. Cell density was determined using a hemocytometer (Neubauer Improved, Germany) and 15×10^6 cells/15 mL S2 are inoculated into each 75-cm^2 flask (Corning, Corning, N.Y., USA). Cells are incubated at 37° C. 10% CO2. The medium was changed after 24 h, and cells are grown until confluent.
The flasks were shaken to dislodge residual neurons and oligodendrocytes that may be present. Flasks were then washed with 10 mL cold HBSS×1, HEPES 15 mM. 5 mL of versene-trypsin solution (BioLab, Jerusalem, Israel) were added to each flask, and the flasks are incubated at room temperature for 5 min to remove astrocytes. The flasks were shaken to dislodge the cells. The versenetrypsin solution was neutralized with 5 mL of S2. The cell suspension was collected and centrifuged at 100 g for 10 min. The supernatant was removed and the cells resuspended in S2. Cells were inoculated into 75-cm^2 flasks or plated in 35-mm dishes (Corning, Corning, N.Y., USA) and incubated until confluence at 37° C. 10% CO2. […]

PC12 cells [3] = conditions: ZnCl2 400 μM, peptide 10^−13M
Protocol: FIG. 15: Rat pheochromocytoma cells (PC12) were seeded on Poly-D-Lysine coated 96-well tissue culture dishes in high concentration (30,000 cells/well). On the day of the experiment the cells were treated with ZnCl2 (400 μM) either alone or in combination with different concentration of SKIP for 4 h. After 4 h the cell viability was analyzed by MTS assay. […] All values are from one experiment performed in hexplicate.
Rat pheochromocytoma cell (PC12, ATCC, Bethesda, Md., USA) were grown in 10-cm tissue culture dishes (Corning). The base medium for this cell line was RPMI-1640 Medium (Invitrogen) supplemented with 10% heat-inactivated horse serum, 5% fetal bovine serum and solution containing 100 U/ml penicillin together with […] streptomycin (Biological Industries, Beit Haemek, Israel). The cells were incubated in 95% air; 5% CO2 in a humidified incubator at 37° C. The medium was changed every 2 to 3 days. The cells were subcultured when cell density reached 4×10^6 cells/ml. The cells were split in a ratio of 1:4.
On the day before the experiment cells were to be harvested, re-suspended and seeded on tissue culture dishes. For cell viability measurements, cells were seeded on Poly-D-Lysine coated 96-well tissue culture dishes (Sigma-Aldrich) at a concentration of 3×10^4 cells/well.
The cell viability is measured by colorimetric method that determines the number of viable cells in culture. This method is based on the bio-reduction of the tetrazolium compound [3-(4,5-dimethylthiazol-2-yl)-5-(3-carboxymethoxyphenyl)-2-(4-sulfophenyl)-2H-tetrazolium; MTS] by living cells into a colored formazan product. This reaction is occurring in the presence of an electron coupling reagent (phenazine ethosulfate; PES). The amount of formazan product is measured by ELISA plate reader at 490 nm and is directly proportional to the number of living cells in culture (CellTiter 96® AQueous One Solution Cell Proliferation Assay; Promega, Madison, Wis., USA).

[4] = molecular target: T2, Full-length human EB3 recombinant protein (human, UniProt Q9UPY8 1-281); assay: competition with soluble peptide on the NAP affinity column; western blot
T2 construct: mature; Full-length protein; also called recombinant EB3; MAPRE3
Protocol: as §1, with “6). […] In order to verify that EB3 was indeed eluted from the column, beads were taken from the column resin mixed with sample buffer and western blot analysis was performed (FIG. 6—"[…]" most right lane).” for “6).”

T1 sequence (Q9UPY8 whole entry): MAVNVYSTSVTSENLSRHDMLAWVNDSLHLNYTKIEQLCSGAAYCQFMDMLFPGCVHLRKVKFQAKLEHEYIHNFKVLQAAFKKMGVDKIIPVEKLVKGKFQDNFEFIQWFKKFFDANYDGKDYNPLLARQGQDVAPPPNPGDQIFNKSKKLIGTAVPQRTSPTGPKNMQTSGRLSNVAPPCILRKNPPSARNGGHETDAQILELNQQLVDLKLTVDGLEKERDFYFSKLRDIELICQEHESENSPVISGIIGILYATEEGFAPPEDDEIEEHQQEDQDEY
T2 sequence (Q9UPY8 whole entry): as above

With Acetyl-NAPVSKIPQ-NH2 (Ac-NAPVSKIPQ-NH2) the “protection against cell death induced by zinc toxicity (MTS survival)” value (“protection against cell death induced” for short) (PC12 cells [1]) was “provided protection against zinc toxicity”, the “protection against cell death induced” value (PC12 cells [1]; listed as Ac-SKIP) was “significantly increased survival” and the “protection against cell death induced” value (PC12 cells [1]; listed as Acetyl-NAPVSKIPQ) was “significantly increased survival”.

For NAPVAAAAQ [negative control peptide], the “competition for EB3 binding to column-bound NAP” value [2] was “no competition” and the “derivative peptides effect on PSD-95 density vs vehicle controls (FIG. 10c)” value (primary cortical neurons) was “did not enhance PSD-95 staining; also recorded: not affected”.

With NAPVAIPQ [NAPVAIPQ (S5A)] the “activity of NAP-like peptide (FIG. 14)” value (astrocytes) was “inactive”.

In the case of NAPVSAIPQ [negative control peptide], the “competition for EB3 binding to column-bound NAP” value [2] is reported as “no competition” and the “derivative peptides effect on PSD-95 density vs vehicle controls (FIG. 10c)” value (primary cortical neurons) is reported as “did not enhance PSD-95 staining; also recorded: not affected”.

“NAPVSGIPQ (synthetic novel peptide core sequence derived from hybrid microtubule end-binding protein 3 (EB3)-binding microtubule plus-end tracking proteins (+TIPs) and activity- dependent neurotrophic factor (ADNF) active core site (NAP)) [NAPVSGIPQ (SEQ ID NO:5)]” was tested, and the “protection against Zn toxicity (MTS viability vs Zn alone)” value (PC12 cells [3]) was “showed protection”.

NAPVSIAQ [NAPVSIAQ (P7A)] was tested, and the “activity of NAP-like peptide (FIG. 14)” value (astrocytes) was “inactive” and the “effect on MT organization” value (astrocytes; 4 hours of incubation) was “did not mimic NAP activity”.

For NAPVSRIPQ, the “protection against cell death induced” value (PC12 cells [1]) was “inactive”.

With NAPVTRIPQ the “protection against cell death induced” value (PC12 cells [1]) was “inactive”.

NAPVSKIPQ: binds [4].
